In article PMC3617406 (Molecular pharmaceutics, 2013):
“Also recorded” adds a separate entry of the source. Structures can show the parent of a compound that is named as a salt. Where two headings read alike, the source gives them in different places.

Experiments:
Type in all cases: cell-based
human NTCP [1] = biological target: T1, human NTCP (Homo sapiens, UniProt Q14973); conditions: for NTCP inhibitor or non-inhibitor: inhibitor = Ki less than 300 μM; for potency estimated from few doses: read-out: Estimated Ki for NTCP
T1 sequence (Q14973 1-349): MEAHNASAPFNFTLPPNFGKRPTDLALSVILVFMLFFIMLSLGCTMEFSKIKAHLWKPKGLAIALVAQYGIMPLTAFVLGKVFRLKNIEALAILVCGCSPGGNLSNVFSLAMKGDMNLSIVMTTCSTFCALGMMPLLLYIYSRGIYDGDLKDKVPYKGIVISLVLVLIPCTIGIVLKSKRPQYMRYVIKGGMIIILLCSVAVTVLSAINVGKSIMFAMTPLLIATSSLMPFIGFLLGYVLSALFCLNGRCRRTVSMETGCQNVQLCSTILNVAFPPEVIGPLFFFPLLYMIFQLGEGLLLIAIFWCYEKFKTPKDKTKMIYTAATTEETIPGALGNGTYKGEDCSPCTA

human NTCP [2] = biological target: T1, human NTCP
human ASBT = biological target: T2, human ASBT (Homo sapiens, UniProt Q12908); conditions: for potency estimated from few doses: read-out: Estimated Ki for ASBT; for taurocholate uptake into ASBT-MDCK cells, percent of control: single drug concentration, same as in NTCP screening (typically 100 μM); for fold more potent ASBT inhibition than NTCP inhibition: Ki values of Table 4 and 5; for ASBT inhibitor or non-inhibitor: inhibitor = Ki below 300 μM
T2 sequence (Q12908 1-348): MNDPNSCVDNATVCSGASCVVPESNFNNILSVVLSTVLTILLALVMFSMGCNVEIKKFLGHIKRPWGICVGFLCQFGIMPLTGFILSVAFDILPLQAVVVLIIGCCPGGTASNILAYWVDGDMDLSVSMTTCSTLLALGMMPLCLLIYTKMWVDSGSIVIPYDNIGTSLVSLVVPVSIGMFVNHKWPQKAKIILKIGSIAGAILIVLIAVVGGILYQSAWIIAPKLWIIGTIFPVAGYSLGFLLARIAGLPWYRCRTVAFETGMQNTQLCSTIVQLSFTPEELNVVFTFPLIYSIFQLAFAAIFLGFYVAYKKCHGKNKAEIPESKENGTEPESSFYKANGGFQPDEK

NTCP inhibitor or non-inhibitor (human NTCP [1])	potency estimated from few doses (human NTCP [1])	potency estimated from few doses (human ASBT)	Structure (SMILES)	other results
inhibited NTCP	264 ± 94 µM	62.6 ± 15 µM	CCCC1O[C@@H]2C[C@H]3[C@@H]4CCC5=CC(=O)C=C[C@]5(C)[C@H]4[C@@H](O)C[C@]3(C)[C@]2(C(=O)CO)O1 (some centres unmarked) [Budesonide]	Ki (human NTCP [2]): 220 ± 45 µM; taurocholate uptake into ASBT-MDCK cells, percent of control (human ASBT): below 50%
inhibited NTCP	145 ± 44 µM	67.6 ± 30 µM	CCOc1nc2cccc(C(=O)O)c2n1Cc1ccc(-c2ccccc2-c2nnn[nH]2)cc1 [Candesartan]	Ki (human NTCP [2]): 233 ± 37 µM
–	460 ± 232 µM	237 ± 21 µM	COc1ccc([C@@H]2Sc3ccccc3N(CCN(C)C)C(=O)[C@@H]2OC(C)=O)cc1 [Diltiazem]	Ki (human NTCP [2]): 599 ± 212 µM
inhibited NTCP	41.2 ± 7.1 µM	20.9 ± 7.3 µM	COc1cc2nc(N3CCN(C(=O)C4COc5ccccc5O4)CC3)nc(N)c2cc1OC (centres unmarked) [Doxazosin]	Ki (human NTCP [2]): 35.3 ± 5.4 µM
–	> 100 µM	137 ± 48 µM	CN1CCC[C@@H]1Cc1c[nH]c2ccc(CCS(=O)(=O)c3ccccc3)cc12 [Eletriptan]	fold more potent ASBT inhibition than NTCP inhibition (human ASBT): ≥ 10 fold
–	> 100 µM	162 ± 82 µM	CCOC(=O)[C@H](CCc1ccccc1)N[C@@H](C)C(=O)N1CCC[C@H]1C(=O)O [Enalapril]	fold more potent ASBT inhibition than NTCP inhibition (human ASBT): ≥ 10 fold
did not inhibit NTCP	> 100 µM	246 ± 119 µM	CCCCc1ncc(/C=C(\Cc2cccs2)C(=O)O)n1Cc1ccc(C(=O)O)cc1 [Eprosartan]	–
–	513 ± 169 µM	313 ± 53 µM	CCC1(C)CC(=O)NC1=O (centres unmarked) [Ethosuximide]	–
NTCP inhibitors	53.8 ± 3.3 µM	4.61 ± 0.88 µM	O=C1[C@H](CC[C@H](O)c2ccc(F)cc2)[C@@H](c2ccc(O)cc2)N1c1ccc(F)cc1 [Ezetimibe]	taurocholate uptake into ASBT-MDCK cells, percent of control (human ASBT): below 50%
–	387 ± 130 µM	2280 ± 978 µM	NC(N)=Nc1nc(CSCCC(N)=NS(N)(=O)=O)cs1 [Famotidine]	–
–	304 ± 132 µM	> 100 µM	NS(=O)(=O)c1cc(C(=O)O)c(NCc2ccco2)cc1Cl [Furosemide]	–
–	673 ± 130 µM	177 ± 32 µM	Cc1ccc(NC(=O)c2ccc(CN3CCN(C)CC3)cc2)cc1Nc1nccc(-c2cccnc2)n1 [Imatinib]	–
NTCP inhibitors	141 ± 14 µM	31.3 ± 7.7 µM	COc1ccc2c(c1)c(CC(=O)O)c(C)n2C(=O)c1ccc(Cl)cc1 [Indomethacin]	Ki (human NTCP [2]): 173 ± 24 µM; taurocholate uptake into ASBT-MDCK cells, percent of control (human ASBT): below 50%
inhibited NTCP	–	131 ± 34 µM	CCCCC1=NC2(CCCC2)C(=O)N1Cc1ccc(-c2ccccc2-c2nnn[nH]2)cc1 [Irbesartan]	–
NTCP inhibitors	99.5 ± 14 µM	17.9 ± 2.3 µM	COC(=O)C1=C(C)NC(C)=C(C(=O)OC(C)C)C1c1cccc2nonc12 (centres unmarked) [Isradipine]	taurocholate uptake into ASBT-MDCK cells, percent of control (human ASBT): below 50%
NTCP inhibitors	77.1 ± 38 µM	57 ± 25 µM	CCC(C)n1ncn(-c2ccc(N3CCN(c4ccc(OCC5COC(Cn6cncn6)(c6ccc(Cl)cc6Cl)O5)cc4)CC3)cc2)c1=O (centres unmarked) [Itraconazole]	ASBT inhibitor or non-inhibitor (human ASBT): ASBT inhibitors
NTCP inhibitors	98.8 ± 12 µM	61.9 ± 27 µM	CC(=O)N1CCN(c2ccc(OCC3COC(Cn4ccnc4)(c4ccc(Cl)cc4Cl)O3)cc2)CC1 (centres unmarked) [Ketoconazole]	Ki (human NTCP [2]): 202 µM; ASBT inhibitor or non-inhibitor (human ASBT): ASBT inhibitors; taurocholate uptake into ASBT-MDCK cells, percent of control (human ASBT): below 50%
–	361 ± 178 µM	480 ± 609 µM	CC(C(=O)O)c1cccc(C(=O)c2ccccc2)c1 (centres unmarked) [Ketoprofen]	Ki (human NTCP [2]): 321 ± 57 µM
NTCP inhibitors	202 ± 32 µM	21.7 ± 2.1 µM	CC[C@H](C)C(=O)O[C@H]1C[C@@H](C)C=C2C=C[C@H](C)[C@H](CC[C@@H]3C[C@@H](O)CC(=O)O3)[C@H]21 [Lovastatin]	taurocholate uptake into ASBT-MDCK cells, percent of control (human ASBT): below 50%

NTCP inhibitor or non-inhibitor (human NTCP [1])	potency estimated from few doses (human NTCP [1])	potency estimated from few doses (human ASBT)	Structure (SMILES)	other results
–	369 ± 83 µM	223 ± 90 µM	Cc1ncc([N+](=O)[O-])n1CCO [Metronidazole]	ASBT inhibitor or non-inhibitor (human ASBT): ASBT inhibitors
–	601 ± 300 µM	61.3 ± 16 µM	Clc1ccc(COC(Cn2ccnc2)c2ccc(Cl)cc2Cl)c(Cl)c1 (centres unmarked) [Miconazole]	ASBT inhibitor or non-inhibitor (human ASBT): ASBT inhibitors
–	2010 ± 5840 µM	> 100 µM	CCOc1ccc2ccccc2c1C(=O)N[C@@H]1C(=O)N2[C@@H]1SC(C)(C)[C@@H]2C(=O)O [Nafcillin]	–
inhibited NTCP	217 ± 69 µM	136 ± 13 µM	COc1ccc2cc([C@H](C)C(=O)O)ccc2c1 [Naproxen]	–
–	309 ± 144 µM	142 ± 3 µM	COC(=O)C1=C(C)NC(C)=C(C(=O)OCCN(C)Cc2ccccc2)C1c1cccc([N+](=O)[O-])c1 (centres unmarked) [Nicardipine]	–
–	> 100 µM	103 ± 23 µM	COc1ccc2[nH]c([S+]([O-])Cc3ncc(C)c(OC)c3C)nc2c1 (centres unmarked) [Omeprazole]	fold more potent ASBT inhibition than NTCP inhibition (human ASBT): ≥ 10 fold
–	> 100 µM	1020 ± 49 µM	CCOC(=O)C1=C[C@@H](OC(CC)CC)[C@H](NC(C)=O)[C@@H](N)C1 [Oseltamivir]	–
–	335 ± 177 µM	89.2 ± 32 µM	C[C@]12C=CC(=O)C=C1CC[C@@H]1[C@@H]2[C@@H](O)C[C@@]2(C)[C@H]1CC[C@]2(O)C(=O)CO [Prednisolone]	–
–	384 ± 185 µM	> 100 µM	CCN(CC)CCNC(=O)c1ccc(N)cc1 [Procainamide HCl]	–
–	402 ± 116 µM	50.3 ± 18 µM	CCCNCC(O)COc1ccccc1C(=O)CCc1ccccc1 (centres unmarked) [Propafenone HCl]	–
–	1490 ± 581 µM	239 ± 117 µM	C=C[C@H]1C[N@@]2CC[C@H]1C[C@H]2[C@H](O)c1ccnc2ccc(OC)cc12 [Quinine]	–
inhibited human NTCP	89.1 ± 65 µM	21.6 ± 2.9 µM	COC(=O)[C@H]1[C@H]2C[C@@H]3c4[nH]c5cc(OC)ccc5c4CCN3C[C@H]2C[C@@H](OC(=O)c2cc(OC)c(OC)c(OC)c2)[C@@H]1OC [Reserpine]	NTCP inhibitor or non-inhibitor (human NTCP [1]; listed as reserpine): inhibited NTCP
–	> 100 µM	30.3 ± 11 µM	CCCN(CCC)CCc1cccc2c1CC(=O)N2 [Ropinirole]	taurocholate uptake into ASBT-MDCK cells, percent of control (human ASBT): below 50%
inhibited NTCP	250 ± 50 µM	194 ± 24 µM	Nc1ccc(S(N)(=O)=O)cc1 [Sulfanilamide]	–
–	1660 ± 2870 µM	529 ± 600 µM	O=C1C(CC[S+]([O-])c2ccccc2)C(=O)N(c2ccccc2)N1c1ccccc1 (centres unmarked) [Sulfinpyrazone]	–
–	> 100 µM	> 100 µM	CN1CCN(CC/C=C2/c3ccccc3Sc3ccc(S(=O)(=O)N(C)C)cc32)CC1 [Thiothixene]	–
–	411 ± 139 µM	110 ± 3 µM	Nc1nc(N)c2nc(-c3ccccc3)c(N)nc2n1 [Triamterene]	–
–	> 100 µM	377 ± 442 µM	COC(=O)[C@@H]1[C@H]2C[C@H]3c4[nH]c5ccccc5c4CCN3C[C@@H]2CC[C@@H]1O [Yohimbine]	–

Structure (SMILES)	NTCP inhibitor or non-inhibitor (human NTCP [1])	potency estimated from few doses (human NTCP [1])	potency estimated from few doses (human ASBT)	other results
COc1ccc(CC(C)NCC(O)c2ccc(O)c(NC=O)c2)cc1 (centres unmarked) [Formoterol]	–	> 100 µM	175 ± 96 µM	–
C[C@H]1C[C@@H]2[C@H]([C@@H](O)C[C@@]3(C)[C@H]2CC[C@]3(O)C(=O)CO)[C@@]2(C)C=CC(=O)C=C12 [Methylprednisolone]	NTCP inhibitors; also recorded: inhibited NTCP but not ASBT	255 ± 53 µM	> 100 µM	fold more potent NTCP inhibition than ASBT inhibition (human NTCP [1]; Ki values of Table 4 and 5): ≥ 10 fold; Ki (human NTCP [2]): 238 ± 33 µM; ASBT inhibitor or non-inhibitor (human ASBT): inhibited NTCP but not ASBT
CC(=O)CC(c1ccccc1)c1c(O)c2ccccc2oc1=O (centres unmarked) [Warfarin]	–	> 100 µM	97.4 ± 26 µM	–
